Here are results for one compound from US7973055B2, “Crystalline forms of a biphenyl compound” (Theravance, Inc., priority 2006, dated 2011).

Some results are limits rather than exact numbers.

The target of test [1] is T1, hM2 receptor (CHO-K1 cells) (Homo sapiens, UniProt P08172).
T1 construct: expressed in transfected cells; host or cells: CHO-K1 cells
T1 sequence (P08172 1-466): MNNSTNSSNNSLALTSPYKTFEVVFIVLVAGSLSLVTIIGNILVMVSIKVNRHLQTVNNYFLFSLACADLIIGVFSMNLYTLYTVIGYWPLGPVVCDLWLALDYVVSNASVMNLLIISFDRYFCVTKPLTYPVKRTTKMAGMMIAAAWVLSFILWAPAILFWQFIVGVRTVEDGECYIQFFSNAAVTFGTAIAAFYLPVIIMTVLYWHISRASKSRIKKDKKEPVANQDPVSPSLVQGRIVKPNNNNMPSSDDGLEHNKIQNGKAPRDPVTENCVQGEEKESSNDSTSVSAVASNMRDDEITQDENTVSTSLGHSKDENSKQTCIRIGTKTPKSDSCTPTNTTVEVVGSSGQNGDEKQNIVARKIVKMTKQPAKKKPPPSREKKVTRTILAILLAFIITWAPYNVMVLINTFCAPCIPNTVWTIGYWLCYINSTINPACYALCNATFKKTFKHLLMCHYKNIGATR
The test is described as follows: Blockade of agonist-mediated [35S]GTPγS binding. The test is classed as biochemical. The conditions noted are these: CHO-K1 cells expressing hM2; this or a similar assay; read-out: Ki for blockade of oxotremorine-stimulated [35S]GTPγS binding. As for the experimental part:
In a second functional assay, the functional potency of test compounds can be determined by measuring the ability of the compounds to block oxotremorine-stimulated [^35S]GTPγS binding in CHO-K1 cells expressing the hM2 receptor.
At the time of use, frozen membranes were thawed and then diluted in assay buffer with a final target tissue concentration of 5-10 μg protein per well. The membranes were briefly homogenized using a Polytron PT-2100 tissue disrupter and then added to the assay plates. The EC90 value (effective concentration for 90% maximal response) for stimulation of [^35S]GTPγS binding by the agonist oxotremorine was determined in each experiment.
To determine the ability of a test compound to inhibit oxotremorine-stimulated [^35S]GTPγS binding, the following was added to each well of 96 well plates: 25 μL of assay buffer with [^35S]GTPγS (0.4 nM), 25 μL of oxotremorine (EC90) and GDP (3 μM), 25 μL of diluted test compound and 25 μL CHO cell membranes expressing the hM2 receptor. […] Microscint-20 scintillation liquid (50 μL) was added to each well, and each plate was sealed and radioactivity counted on a topcounter (PerkinElmer). Data were analyzed by nonlinear regression analysis with the GraphPad Prism Software package (GraphPad Software, Inc., San Diego, Calif.) using the non-linear regression, one-site competition equation. […]
(Binding of GTPγS marks nucleotide exchange on a G protein.)

For test [2], the target named is T1, hM2 receptor (CHO-K1 cells). The test is described as follows: Blockade of agonist-mediated inhibition of cAMP accumulation. The test is classed as cell-based. Conditions: CHO-K1 cells expressing hM2; this or a similar assay; read-out: Ki for blockade of oxotremorine-inhibition of forskolin-mediated cAMP accumulation. As for the experimental part:
In this assay, the functional potency of a test compound was determined by measuring the ability of the test compound to block oxotremorine-inhibition of forskolin-mediated cAMP accumulation in CHO-K1 cells expressing the hM2 receptor. cAMP assays were performed in a radioimmunoassay format using the Flashplate Adenylyl Cyclase Activation Assay System with ^125I-cAMP (NEN SMP004B, PerkinElmer Life Sciences Inc., Boston, Mass.), according to the manufacturer's instructions.
Cells were rinsed once with dPBS and lifted with Trypsin-EDTA solution (0.05% trypsin/0.53 mM EDTA) as described in the Cell Culture and Membrane Preparation section above. […] The cell pellet was then re-suspended in 10 mL dPBS, and the cells were counted with a Coulter Z1 Dual Particle Counter (Beckman Coulter, Fullerton, Calif.). […]
To measure oxotremorine inhibition of AC activity, 25 μL forskolin (25 μM final concentration diluted in dPBS), 25 μL diluted oxotremorine, and 50 μL cells were added to agonist assay wells. […] Plates were sealed, incubated overnight at room temperature and counted the next morning on a PerkinElmer TopCount liquid scintillation counter (PerkinElmer Inc., Wellesley, Mass.). The amount of cAMP produced (pmol/well) was calculated based on the counts observed for the samples and cAMP standards, as described in the manufacturer's user manual. […]
A general note: Changes in cAMP serve as a functional read-out for many G protein-coupled receptors.

As usually defined, the Ki is the equilibrium dissociation constant of an inhibitor or competing ligand from its target. Take `CN(CCN1CCC(OC(=O)Nc2ccccc2-c2ccccc2)CC1)C(=O)c1cccc(C(=O)NCCNCc2ccc(O)cc2)c1` [compound of formula I, biphenyl-2-ylcarbamic acid 1-[2-({3-[2-(4-hydroxybenzylamino)ethylcarbamoyl]benzoyl}methylamino)ethyl]piperidin-4-yl ester]: the Ki was under 10 nM in test [1] and under 5 nM in test [2].
